Test results: patent publication US8816097B2, “Active ingredient combinations having insecticide and acaricide properties” (Bayer CropScience AG, priority 2006, dated 2014)

Legend:
[1] = test system: larvae of the army worm (Spodoptera frugiperda); test: Spodoptera frugiperda test (sprayed cabbage leaves); type: in vivo; details: single active compound, 100 g/ha
Excerpt: (§1) Solvents: 78 parts by weight of acetone

[2] = test system: green peach aphid (Myzus persicae); test: Myzus persicae test (sprayed cabbage leaves); type: in vivo; details: single active compound, 100 g/ha
Excerpt: as §1

[3] = test system: larvae of the mustard beetle (Phaedon cochleariae); test: Phaedon cochleariae larvae test (sprayed cabbage leaves); details: single active compound, 100 g/ha
[4] = test system: two-spotted spider mite (Tetranychus urticae); test: Tetranychus urticae test (sprayed dwarf bean leaves); type: in vivo; details: single active compound
Excerpt: as §1

Question: How did the “Kill level in % after 6d” value [1] turn out when COCCOC(=O)C(C#N)(C(=O)c1ccccc1C(F)(F)F)c1ccc(C(C)(C)C)cc1 (stereo not drawn) [Cyflumetofen, 2-methoxyethyl alpha-cyano-alpha-[4-(1,1-dimethylethyl)phenyl]-beta-oxo-2-(trifluoromethyl)benzenepropanoate] was run?
Answer: The value was 0%.

Question: And the “Kill level in % after 6d” value [2]?
Answer: The value was 0%.

Question: And the “Kill level in % after 6d” value [3]?
Answer: Its value is 0%.

Question: What about the “Kill rate in % after 2d” value ([4]; 0.8 g/ha) of the same compound?
Answer: Its value is 20%.

Question: With CCC(C)(C)C(=O)OC1=C(c2ccc(Cl)cc2Cl)C(=O)OC12CCCCC2 [Spirodiclofen] as the compound, how does the “Kill rate in % after 2d” value ([4]; 0.8 g/ha) read?
Answer: The value was 10%.

Question: How did the “Kill level in % after 6d” value [2] turn out when Cc1nn(C)c(/C(OC(=O)C(C)(C)C)=C(\C#N)c2ccc(C(C)(C)C)cc2)c1C [Cyenopyrafen, (1E)-2-cyano-2-[4-(1,1-dimethylethyl)phenyl]-1-(1,3,4-trimethyl-1H-pyrazol-5-yl)ethenyl 2,2-dimethylpropanoate] was run?
Answer: The value was 0%.

Question: What about the “Kill level in % after 6d” value [3] of the same compound?
Answer: Its value is 50%.

Question: And the “Kill rate in % after 2d” value ([4]; 0.8 g/ha)?
Answer: The value was 80%.

Question: How did the “Kill level in % after 6d” value [1] turn out when CSC(=O)O/C(=C(/C#N)c1ccc(Cl)cc1)c1ccccc1C(F)(F)F [IKA 2002] was run?
Answer: The value was 0%.

Question: And the “Kill level in % after 6d” value [3]?
Answer: The value was 33%.

Question: What about the “Kill rate in % after 2d” value ([4]; 0.032 g/ha) of the same compound?
Answer: Its value is 0%.

Question: What about the “Kill rate in % after 2d” value ([4]; 0.8 g/ha) of the same compound?
Answer: Its value is 0%.

Question: Which “Kill level in % after 6d” value [2] does the source give for Cc1cc(C)c(C2=C(OC(=O)CC(C)(C)C)C3(CCCC3)OC2=O)c(C)c1 [Spiromesifen] here?
Answer: Its value is 70%.

Question: And the “Kill rate in % after 2d” value ([4]; 0.16 g/ha)?
Answer: Its value is 0%.

Question: And the “Kill rate in % after 2d” value ([4]; 0.8 g/ha)?
Answer: The value was 10%.

Question: Which “Kill level in % after 6d” value [1] does the source give for CCOC(=O)OC1=C(c2cc(C)ccc2C)C(=O)N[C@]12CC[C@@H](OC)CC2 [Spirotetramat] here?
Answer: Its value is 50%.

Question: What about the “Kill level in % after 6d” value [3] of the same compound?
Answer: The value was 33%.

Question: What about the “Kill rate in % after 2d” value ([4]; 0.8 g/ha) of the same compound?
Answer: The value was 0%.
